Reference: PMC3914206

Tests used:
[1] = target: T1, panel of 442 kinases (Homo sapiens, UniProt Q9NRP7); type: binding; settings: kinase STK36; compound concentration 10 µM
T1 construct: purchased KINOMEscan
T1 sequence (Q9NRP7 1-1315): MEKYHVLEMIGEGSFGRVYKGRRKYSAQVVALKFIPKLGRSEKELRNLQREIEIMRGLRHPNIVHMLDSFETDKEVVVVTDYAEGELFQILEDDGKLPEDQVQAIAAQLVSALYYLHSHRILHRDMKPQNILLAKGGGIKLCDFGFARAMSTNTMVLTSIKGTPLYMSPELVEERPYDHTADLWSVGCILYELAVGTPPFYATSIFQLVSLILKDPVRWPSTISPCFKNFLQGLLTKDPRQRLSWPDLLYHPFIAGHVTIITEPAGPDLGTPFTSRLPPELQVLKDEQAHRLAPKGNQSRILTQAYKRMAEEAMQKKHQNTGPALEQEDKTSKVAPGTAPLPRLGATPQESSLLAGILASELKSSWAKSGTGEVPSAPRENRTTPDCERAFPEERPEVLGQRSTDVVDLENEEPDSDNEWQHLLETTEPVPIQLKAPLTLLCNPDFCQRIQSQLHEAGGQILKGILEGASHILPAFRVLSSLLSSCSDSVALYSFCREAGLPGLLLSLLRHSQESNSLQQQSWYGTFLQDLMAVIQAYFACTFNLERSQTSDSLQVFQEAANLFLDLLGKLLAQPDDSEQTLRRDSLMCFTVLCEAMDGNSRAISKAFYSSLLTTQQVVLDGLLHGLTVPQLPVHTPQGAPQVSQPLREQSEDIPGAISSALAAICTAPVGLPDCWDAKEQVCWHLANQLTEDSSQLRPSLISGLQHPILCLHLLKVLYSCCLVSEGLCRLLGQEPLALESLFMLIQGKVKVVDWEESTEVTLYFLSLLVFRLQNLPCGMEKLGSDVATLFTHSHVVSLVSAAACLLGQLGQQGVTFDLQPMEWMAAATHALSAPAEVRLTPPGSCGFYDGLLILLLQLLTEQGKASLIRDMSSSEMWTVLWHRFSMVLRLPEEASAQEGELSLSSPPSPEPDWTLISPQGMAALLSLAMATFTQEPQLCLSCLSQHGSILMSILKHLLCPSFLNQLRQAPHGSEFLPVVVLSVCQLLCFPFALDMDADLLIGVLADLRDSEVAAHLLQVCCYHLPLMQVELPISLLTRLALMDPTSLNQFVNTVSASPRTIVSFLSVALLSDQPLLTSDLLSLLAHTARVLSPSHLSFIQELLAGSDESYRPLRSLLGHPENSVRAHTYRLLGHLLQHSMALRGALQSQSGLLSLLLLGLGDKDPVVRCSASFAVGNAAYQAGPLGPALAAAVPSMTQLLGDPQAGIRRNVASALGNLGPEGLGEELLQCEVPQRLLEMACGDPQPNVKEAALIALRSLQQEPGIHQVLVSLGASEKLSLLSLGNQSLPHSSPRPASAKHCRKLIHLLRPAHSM
From the text: (§1) We assessed the selectivity of members of this scaffold using the KINOMEscan methodology across a near comprehensive panel of 442 kinases [[18,27]].

[2] = target: T2, panel of 442 kinases (Homo sapiens, UniProt P49674); type: binding; settings: Compound Concentration 10 µM
T2 construct: purchased KINOMEscan
From the text: as §1

T2 sequence (P49674 whole entry): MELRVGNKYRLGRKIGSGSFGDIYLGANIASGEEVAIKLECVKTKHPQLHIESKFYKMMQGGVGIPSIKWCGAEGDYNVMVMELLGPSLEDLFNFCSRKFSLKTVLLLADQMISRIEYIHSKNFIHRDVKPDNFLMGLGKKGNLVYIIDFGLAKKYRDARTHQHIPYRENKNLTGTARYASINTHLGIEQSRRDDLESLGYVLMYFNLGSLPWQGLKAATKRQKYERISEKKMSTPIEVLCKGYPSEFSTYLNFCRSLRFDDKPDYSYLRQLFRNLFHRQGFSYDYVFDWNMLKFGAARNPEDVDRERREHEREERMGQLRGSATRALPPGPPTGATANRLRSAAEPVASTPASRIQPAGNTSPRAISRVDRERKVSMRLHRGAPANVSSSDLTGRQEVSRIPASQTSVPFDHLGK

Q: Which results are given for `CCOc1cc(C(=O)N2CCC(N3CCN(C)CC3)CC2)ccc1Nc1ncc2c(n1)N(C1CCCC1)c1ccccc1C(=O)N2C` [Compound 26]?
A: % Ctrl, STK36 [1]: 99 % Ctrl; KINOMEscan: CSNK1E [2]: 100

Q: How did the “% Ctrl, STK36” value [1] turn out when `COc1cc(C(=O)N2CCC(N3CCN(C)CC3)CC2)ccc1Nc1ncc2c(n1)N(C1CCCC1)c1ccccc1C(=O)N2C` [Compound 25, 11-cyclopentyl-2-((2-methoxy-4-(4-(4-methylpiperazin-1-yl)piperidine-1-carbonyl)phenyl)amino)-5-methyl-5H-benzo[e]pyrimido[5,4-b][1,4]diazepin-6(11H)-one] was run?
A: Its value is 96 % Ctrl.

Q: What about the “KINOMEscan: CSNK1E” value [2] of the same compound?
A: Its value is 100.

Q: With `COc1cc(C(=O)N2CCC(N3CCN(C)CC3)CC2)ccc1Nc1ncc2c(n1)N1CCc3cccc(c31)C(=O)N2C` [Compound 24] as the compound, how does the “KINOMEscan: CSNK1E” value [2] read?
A: Its value is 81.

Q: For `COc1cc(C(=O)N2CCC(N3CCN(C)CC3)CC2)ccc1Nc1ncc2c(n1)N(C)c1ccccc1C(=O)N2C` [15 (LRRK2-IN-1)], which “% Ctrl, STK36” value [1] is on record?
A: Its value is 97 % Ctrl.

Q: What about the “KINOMEscan: CSNK1E” value [2] of the same compound?
A: The value was 95.
